Source: ChEMBL document CHEMBL1201862, “PubChem BioAssay data set” (2004)
Active and inactive are the calls of the source.

Key:
[1] = inhibitors of firefly luciferase expression or activity, dose response, H4 neuroglioma cells, luminescence (AID 1990); assay type: functional, cell-based
[2] = Luminescence Cell-Based Dose Response HTS to Identify Inhibitors of 5'UTR Stem-Loop Driven Prion Protein mRNA Translation in H4 Neuroglioblastoma Cells. [Related pubchem assays: 1827 (Project Summary), 1813 (Primary HTS)]; assay type: functional
[3] = inhibitors of SNCA 5'UTR-driven reporter translation, confirmation, H4 neuroglioma cells, luminescence (AID 1988); assay type: functional, cell-based
[4] = molecular target: T1, Apoptotic protease-activating factor 1 (Homo sapiens, UniProt O14727); assay type: functional
T1 sequence (O14727 whole entry): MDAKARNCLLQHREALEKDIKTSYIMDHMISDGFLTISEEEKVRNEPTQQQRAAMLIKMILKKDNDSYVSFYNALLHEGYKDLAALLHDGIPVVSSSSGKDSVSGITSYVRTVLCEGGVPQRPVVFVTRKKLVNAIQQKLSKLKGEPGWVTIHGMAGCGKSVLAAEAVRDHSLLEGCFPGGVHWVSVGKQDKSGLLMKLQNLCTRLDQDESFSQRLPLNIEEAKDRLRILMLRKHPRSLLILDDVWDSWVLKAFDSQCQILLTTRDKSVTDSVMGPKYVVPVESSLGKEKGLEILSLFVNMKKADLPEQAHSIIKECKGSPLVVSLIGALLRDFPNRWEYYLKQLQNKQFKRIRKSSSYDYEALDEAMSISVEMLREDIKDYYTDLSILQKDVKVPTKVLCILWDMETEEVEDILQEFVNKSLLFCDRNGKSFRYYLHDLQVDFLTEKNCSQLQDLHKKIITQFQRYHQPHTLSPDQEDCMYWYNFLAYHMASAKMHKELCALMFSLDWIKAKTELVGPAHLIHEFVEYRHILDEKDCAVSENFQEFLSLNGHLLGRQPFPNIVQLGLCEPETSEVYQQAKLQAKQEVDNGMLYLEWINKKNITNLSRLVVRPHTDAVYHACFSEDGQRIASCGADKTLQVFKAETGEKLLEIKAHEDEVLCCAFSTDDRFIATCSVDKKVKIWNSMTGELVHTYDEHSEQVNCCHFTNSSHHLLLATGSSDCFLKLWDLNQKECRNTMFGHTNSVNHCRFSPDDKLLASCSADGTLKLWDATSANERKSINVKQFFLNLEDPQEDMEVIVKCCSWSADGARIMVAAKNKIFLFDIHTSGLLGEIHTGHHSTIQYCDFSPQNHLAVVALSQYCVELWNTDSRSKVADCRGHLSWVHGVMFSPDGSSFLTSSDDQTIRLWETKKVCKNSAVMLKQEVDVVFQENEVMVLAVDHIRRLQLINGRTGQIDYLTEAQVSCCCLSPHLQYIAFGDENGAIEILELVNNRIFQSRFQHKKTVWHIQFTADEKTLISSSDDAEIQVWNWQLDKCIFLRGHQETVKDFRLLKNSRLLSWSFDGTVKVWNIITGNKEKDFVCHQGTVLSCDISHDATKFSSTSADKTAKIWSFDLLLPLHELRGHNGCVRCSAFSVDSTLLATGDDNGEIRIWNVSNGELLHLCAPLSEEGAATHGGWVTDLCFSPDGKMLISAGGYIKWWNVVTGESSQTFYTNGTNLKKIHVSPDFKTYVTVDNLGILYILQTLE

[5] = molecular target: T2, RNA-binding protein pos-1 (Caenorhabditis elegans, UniProt G5EF15); assay: inhibitors of POS-1/mex-3 RNA binding, dose response, biochemical, fluorescence polarization (AID 1964);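 further: purified POS-1 fused to maltose binding protein made in E. coli; potency of compounds blocking POS-1 binding to fluorescent RNA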
T2 sequence (G5EF15 whole entry): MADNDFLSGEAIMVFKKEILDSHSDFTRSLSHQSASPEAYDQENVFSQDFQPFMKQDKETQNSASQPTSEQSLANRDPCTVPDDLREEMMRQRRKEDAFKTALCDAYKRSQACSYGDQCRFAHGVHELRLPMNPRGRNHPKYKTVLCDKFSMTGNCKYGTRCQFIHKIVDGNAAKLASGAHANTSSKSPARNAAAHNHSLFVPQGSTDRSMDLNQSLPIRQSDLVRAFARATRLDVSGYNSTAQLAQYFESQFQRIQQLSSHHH

[6] = molecular target: T3, Zinc finger protein mex-5 (Caenorhabditis elegans, UniProt Q9XUB2); assay: MEX-5/TCR-2 RNA interaction inhibitors, dose response, biochemical, C. elegans, fluorescence polarization (AID 1960)
T3 sequence (Q9XUB2 whole entry): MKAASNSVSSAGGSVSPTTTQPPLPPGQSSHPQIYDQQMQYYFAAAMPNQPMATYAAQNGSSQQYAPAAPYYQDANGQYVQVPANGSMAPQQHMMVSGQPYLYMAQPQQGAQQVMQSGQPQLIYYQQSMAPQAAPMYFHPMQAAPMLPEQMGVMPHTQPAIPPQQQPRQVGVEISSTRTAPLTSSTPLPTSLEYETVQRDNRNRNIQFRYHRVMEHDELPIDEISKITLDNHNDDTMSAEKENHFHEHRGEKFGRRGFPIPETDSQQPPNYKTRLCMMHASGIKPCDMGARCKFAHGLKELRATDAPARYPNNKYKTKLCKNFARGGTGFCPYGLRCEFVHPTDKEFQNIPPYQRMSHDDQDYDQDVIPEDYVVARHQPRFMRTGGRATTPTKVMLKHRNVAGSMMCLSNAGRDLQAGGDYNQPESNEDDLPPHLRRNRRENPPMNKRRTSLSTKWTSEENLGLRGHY

[7] = inhibitors of intracellular T. cruzi replication, confirmation, NIH3T3 host cells, beta-gal luminescence (AID 2044); assay type: functional, cell-based;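 further: intracellular parasites grown in NIH/3T3 mouse fibroblasts as host cells; luminescent beta-galactosidase reporter signal from transgenic T. cruzi replicating inside host cells; inhibitors lower the luminescence signal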
[8] = cytotoxicity toward NIH3T3 fibroblasts, dose response, counter-screen, cell-based, ATP luminescence, mouse fibroblasts (AID 2010); assay type: functional;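 further: cells exposed to compound for about 90 hours before reading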
[9] = cytotoxicity in HEK-293T cells, dose response, cytotoxicity control for BCR NF-kB inhibitor project, luminescence, B-cell screen hits (AID 489021); assay type: functional, cell-based;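 further: HEK-293T cells carrying an NF-kB luciferase reporter; cells exposed to compound for about 14 hours before viability readout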
HEK293 = assay: inhibitors of LMP1-driven NF-kB reporter, dose response, cell-based, HEK293, luciferase, cherry-pick (AID 588343); assay type: functional; settings: Homo sapiens
[10] = molecular target: Latent membrane protein 1 (Human herpesvirus 4 (strain B95-8), UniProt P03230); assay: TES1-eGFP NF-kB reporter inhibition versus Tet-On dsRED, dose response, selectivity assay for LMP1 NF-kB inhibitor project, imaging, HEK293T, dual-color eGFP/dsRED, cherry-picks (AID 588398); assay type: functional, cell-based
Protein skinhead-1 = molecular target: T4, Protein skinhead-1 (Caenorhabditis elegans, UniProt P34707); assay type: functional
T4 sequence (P34707 whole entry): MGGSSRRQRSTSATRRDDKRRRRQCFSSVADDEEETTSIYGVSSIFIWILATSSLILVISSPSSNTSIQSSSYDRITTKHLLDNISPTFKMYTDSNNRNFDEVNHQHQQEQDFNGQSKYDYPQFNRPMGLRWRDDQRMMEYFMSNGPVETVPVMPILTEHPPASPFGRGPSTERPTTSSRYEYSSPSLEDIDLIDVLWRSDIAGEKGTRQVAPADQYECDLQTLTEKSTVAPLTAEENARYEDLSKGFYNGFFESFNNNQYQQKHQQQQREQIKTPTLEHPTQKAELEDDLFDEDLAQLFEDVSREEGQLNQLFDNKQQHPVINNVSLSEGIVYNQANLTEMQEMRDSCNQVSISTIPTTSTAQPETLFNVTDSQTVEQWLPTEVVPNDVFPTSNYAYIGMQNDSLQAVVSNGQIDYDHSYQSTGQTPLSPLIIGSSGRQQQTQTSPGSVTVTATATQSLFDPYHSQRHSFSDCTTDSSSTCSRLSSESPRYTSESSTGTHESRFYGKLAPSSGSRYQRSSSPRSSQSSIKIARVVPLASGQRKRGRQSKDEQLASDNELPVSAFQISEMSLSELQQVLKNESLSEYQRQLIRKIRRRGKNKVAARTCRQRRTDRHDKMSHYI

[11] = Shn3 3'UTR reporter inhibitors, dose response, cell-based, Clone20 osteoblasts, firefly luciferase, cherry-picked (AID 624132); assay type: functional;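 further: firefly luciferase luminescence from reporter carrying the Shn3 3'UTR in osteoblasts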
[12] = HepG2 cell cytotoxicity, dose response, cytotoxicity control for Shn3 inhibitor project, CellTiter-Glo, cherry-picked (AID 624134); assay type: functional, cell-based
[13] = control 3'UTR Renilla luciferase suppression, dose response, counter-screen for Shn3 inhibitor project, cell-based, Clone20-Shn3RL, cherry-picked (AID 624133); assay type: functional

Latent membrane protein 1, sequence (P03230 whole entry): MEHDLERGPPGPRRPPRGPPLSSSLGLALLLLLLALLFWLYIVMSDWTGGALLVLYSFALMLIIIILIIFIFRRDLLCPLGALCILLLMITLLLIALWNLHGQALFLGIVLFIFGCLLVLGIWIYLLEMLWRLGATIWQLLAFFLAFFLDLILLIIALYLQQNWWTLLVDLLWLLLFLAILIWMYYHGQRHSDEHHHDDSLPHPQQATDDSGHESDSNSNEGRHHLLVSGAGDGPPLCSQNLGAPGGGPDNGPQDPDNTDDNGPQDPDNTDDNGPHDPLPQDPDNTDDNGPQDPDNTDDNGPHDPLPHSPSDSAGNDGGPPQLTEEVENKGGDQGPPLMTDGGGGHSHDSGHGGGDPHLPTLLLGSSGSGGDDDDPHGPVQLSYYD

Cc1c(CCC(C)C)c(O)n2c(nc3ccccc32)c1C#N
EC50 [1]: 69.3 µM (active)
EC50 [2]: > 120 µM (not active)
EC50 [3]: > 120 µM (not active)
IC50 [4]: 38.6 µM (active)

CCc1ccc(/C=C2\SC(=S)N(CCCC(=O)Nc3ccccn3)C2=O)cc1
EC50 [5]: 27.1 µM (active)
EC50 [6]: 24.6 µM (active)
EC50 [7]: 1.83 µM (active)
EC50 [8]: 54.8 µM (active)
IC50 [9]: > 80 µM (inactive)
AC50 (HEK293): 4.92 µM (active)
AC50 [10]: 16.2 µM (active)
IC50 (Protein skinhead-1): > 100 µM (inactive)

CC(C)(O)C#Cc1ccc([C@@H]2C[C@H]3CN(c4ccccc4)C(=O)[C@]34CCCN24)s1
AC50 (HEK293): 11.9 µM (active)
AC50 [10]: 5.64 µM (active)
AC50 [11]: 4.93 µM (active)
AC50 [12]: > 70 µM (inactive)
AC50 [13]: > 70 µM (inactive)
